# Experimental data taken from US20160279187A1, “CALPAIN INHIBITORS FOR IBD AND COLORECTAL CANCER TREATMENT” (UNIVERSITY OF HAWAII, priority 2013, published 2016).
# Where a SMILES comes first, the peptide text is derived from it. The star is where a group is joined. Cbz = O=C(OCc1ccccc1)*; CH2F = FC*
# What was measured:
# μ-calpain = target: T1, μ-calpain (Homo sapiens, UniProt P07384); conditions: off-target; cited from earlier work
# T1 sequence (P07384 1-714): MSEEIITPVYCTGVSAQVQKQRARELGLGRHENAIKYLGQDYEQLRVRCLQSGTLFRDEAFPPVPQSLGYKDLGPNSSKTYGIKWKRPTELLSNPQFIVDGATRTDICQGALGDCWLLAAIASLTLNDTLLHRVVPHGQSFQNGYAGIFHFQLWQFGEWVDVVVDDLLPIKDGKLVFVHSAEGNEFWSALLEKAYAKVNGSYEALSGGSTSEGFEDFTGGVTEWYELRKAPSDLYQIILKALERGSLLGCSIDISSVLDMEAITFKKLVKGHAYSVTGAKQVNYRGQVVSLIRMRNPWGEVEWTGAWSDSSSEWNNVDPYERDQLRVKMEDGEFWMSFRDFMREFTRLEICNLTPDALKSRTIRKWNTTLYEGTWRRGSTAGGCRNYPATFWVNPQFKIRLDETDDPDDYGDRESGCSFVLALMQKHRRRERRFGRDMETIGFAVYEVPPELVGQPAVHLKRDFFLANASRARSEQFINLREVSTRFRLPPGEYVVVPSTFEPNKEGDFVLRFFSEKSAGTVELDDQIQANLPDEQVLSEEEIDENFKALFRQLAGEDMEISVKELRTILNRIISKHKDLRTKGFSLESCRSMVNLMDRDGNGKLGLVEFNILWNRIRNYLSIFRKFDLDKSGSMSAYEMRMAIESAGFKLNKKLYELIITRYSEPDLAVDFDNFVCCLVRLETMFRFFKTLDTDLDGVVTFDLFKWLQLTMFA
# m-calpain = target: T2, m-calpain (Homo sapiens, UniProt P17655); conditions: on-target; cited from earlier work
# T2 sequence (P17655 1-700): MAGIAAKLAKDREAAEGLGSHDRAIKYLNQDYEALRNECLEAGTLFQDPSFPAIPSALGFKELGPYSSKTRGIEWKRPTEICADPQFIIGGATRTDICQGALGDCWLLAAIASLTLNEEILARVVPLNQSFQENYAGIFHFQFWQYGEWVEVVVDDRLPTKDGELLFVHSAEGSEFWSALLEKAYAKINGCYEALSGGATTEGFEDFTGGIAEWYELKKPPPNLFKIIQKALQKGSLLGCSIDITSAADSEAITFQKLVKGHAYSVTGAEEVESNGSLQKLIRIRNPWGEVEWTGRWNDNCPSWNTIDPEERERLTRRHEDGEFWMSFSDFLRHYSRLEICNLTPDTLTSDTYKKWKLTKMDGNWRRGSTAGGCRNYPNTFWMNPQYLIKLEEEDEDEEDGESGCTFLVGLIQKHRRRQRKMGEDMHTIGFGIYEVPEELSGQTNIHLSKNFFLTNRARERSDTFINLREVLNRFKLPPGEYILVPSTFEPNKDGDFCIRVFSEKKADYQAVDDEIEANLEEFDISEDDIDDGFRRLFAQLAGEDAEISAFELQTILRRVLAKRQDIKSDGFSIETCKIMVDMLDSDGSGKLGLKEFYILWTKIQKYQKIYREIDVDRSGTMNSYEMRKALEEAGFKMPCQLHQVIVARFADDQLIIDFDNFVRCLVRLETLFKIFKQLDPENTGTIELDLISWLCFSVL
# T2 sequence (P04632 1-268 partner): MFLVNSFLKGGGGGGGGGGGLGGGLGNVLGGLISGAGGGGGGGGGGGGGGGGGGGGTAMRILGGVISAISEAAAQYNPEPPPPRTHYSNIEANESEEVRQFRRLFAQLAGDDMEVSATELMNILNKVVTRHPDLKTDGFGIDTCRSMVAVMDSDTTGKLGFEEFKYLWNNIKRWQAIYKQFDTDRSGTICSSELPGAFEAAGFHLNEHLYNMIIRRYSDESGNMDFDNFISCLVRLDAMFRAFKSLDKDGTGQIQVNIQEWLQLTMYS
# [1] = system: Akt phosphorylation / FAK cleavage in colon cancer cells; assay: other m-calpain regulated pathways in colon cancer cells (Akt, FAK); assay type: cell-based
# [2] = system: cytokine mRNAs in colon tissues; assay: AOM/DSS model, colon cytokine mRNA by real-time PCR; assay type: in vivo, mice; conditions: day 63, vs vehicle control
# Method: Mice subjected to the AOM/DSS model were sacrificed on day 63 and colons removed and assessed by histology and cytokine mRNA analyses. […] To further assess inflammation, mouse colon tissues were harvested at the end of the chronic colitis model and mRNA levels for different cytokines measured by real-time PCR.
# To determine if a similar mechanism may be contributing to the effect of the calpain-2 inhibition in the DSS model of colitis, macrophages were analyzed for NFκB activation and inflammatory cytokine secretion. Bone marrow derived macrophages were primed […] with TNFα (20 ng/ml) and activated with E. faecalis (1 μg/ml) for 1 h in the presence or absence of calpain-2 inhibitor (20 μg/ml). Supernatants were evaluated for a panel of cytokines including IFNγ, TNFα, IL-6, and MCP-1, IL-10, and IL-12. Real-time PCR was performed on total RNA extracted from colon tissues to access levels of cytokines. Media was collected from wells and cytokines assessed by CBA kit (BD Biosciences). For IκB blotting cells were lysed and SDS-PAGE was performed. Membranes were stained with anti-IκB (Cell Signalling) and anti-βactin (Santa Cruz). For NfκB blotting an NFκB Activation Kit (Five Photon) was used to isolate nuclear fractions. These fractions were transferred using SDS-PAGE. The membranes were stained with anti-NFκB (Santa Cruz) or anti-TATA (Abcam). Data are mean±SE (n=3) and represent results from three independent experiments. *p<0.05; one way ANOVA followed by Tukey post-test. […] Importantly, those cytokines most affected by the calpain-2 are regulated by NFκB.
structure (smiles),measurement,setting,value
"CC(C)C[C@H](NC(=O)OCc1ccccc1)C(=O)N[C@@H](CC(C)C)C(=O)N[C@@H](Cc1ccc(O)cc1)C(=O)CF [zLLY-CH2F, Z-LLY-CH2F] (Cbz-Leu-Leu-Tyr-CH2F)",inhibition of μ-calpain,μ-calpain,not known to inhibit
same,"k2 rate constant, irreversible inhibition of m-calpain",m-calpain,"about 28,900 M-1 s-1"
same,FAK cleavage,[1],not apparent
same,phosphorylation of Akt,[1],inhibited
same,IFNγ mRNA level in colon,[2],not significantly different
same,IL-6 mRNA level in colon,[2],lowered
same,MCP-1 mRNA level in colon,[2],lowered
same,TNFα mRNA level in colon,[2],lowered
